US9937250B2, “Immunogenic tumor associated stromal cell antigen peptides and methods of their use” (University of Pittsburgh—Of the Commonwealth System of …, priority 2011, dated 2018)

How the values were obtained:
[1] = system: CD8+ T cells from HLA-A2+ normal donors or HLA-A2+ melanoma patients; assay: In vitro sensitization of human CD8+ T cells with TASA peptide-pulsed autologous DC, IFN-γ ELISA against peptide-pulsed T2 cells; assay type: cell-based; details: response = IFN-γ >30 pg/ml and >2 fold HIV-nef control; for Specific CD8+ T Cell Response, HLA-A2+ Normal Donors (of 8): number of responding donors of 8; for Specific CD8+ T Cell Response, HLA-A2+ Melanoma Patients (of 10): number of responding patients of 10
Protocol: The indicated peptides were pulsed onto autologous DC and used to prime and boost CD8^+ T cells isolated from the peripheral blood of eight normal HLA-A2^+ donors or ten HLA-A2^+ patients with melanoma. Seven days after the primary in vitro sensitization (IVS) (melanoma patients) or a secondary IVS boost (normal donors), T cells were analyzed for their reactivity against HLA-A2^+ T2 cells pulsed with the relevant peptide vs. the negative control HIV-nef190-198 peptide. After 24 hours of co-culture, cell-free supernatants were analyzed for levels of secreted IFN-γ using a commercial ELISA. Data are reported in Bar and Whisker plots, with p-values provided for paired pre- versus post-IVS data from normal donors and patients. In addition, p<0.05 was detected for MEL-Post versus ND-Post for the following peptides: DLK1 (309), NG2 (770), NG2 (2238), PDGFRβ (891) and RGS5 (5).
In vitro assessment of human CD8^+ T cell responses against TASA- or TAA-derived peptides. Peripheral blood mononuclear cells (PBMC) were obtained by venipuncture or leukapheresis from HLA-A2^+ normal donors or HLA-A2^+ melanoma patients with written consent under IRB-approved protocols (Table 3). CD8^+ T cells were then isolated by MACS (Miltenyi Biotec, Auburn, Calif.) and either not stimulated or stimulated with autologous, TASA peptide-pulsed DC as previously described (Tatsumi et al., Cancer Res., 63:4481-4489, 2003). Normal donor T cells were stimulated with TASA peptide-pulsed DC twice on a weekly schedule, with responder T cells harvested for analysis of their specificity 5 days after the booster stimulation (i.e. day 12 of T cell-DC co-culture). Melanoma patient CD8^+ T cells were analyzed after a single round of stimulation with TASA peptide-pulsed, autologous DC (i.e. day 5 of T cell-DC co-culture) as indicated. For DC-based stimulations, DC were pulsed with an equimolar (1 μM each) pool of the TASA peptides (Table 4) for 4 h at 37° C. at 5% CO2 tension. These antigen-loaded DC were then used to stimulate autologous CD8^+ T cells at a T cell-to-DC ratio of 10:1 to generate a bulk population of responder T cells. T cells were maintained in IMDM media supplemented with 10% human AB serum, 100 U/ml penicillin, […], 10 mM L-glutamine and MEM non-essential amino acids (all reagents from Invitrogen, except human AB serum that was purchased from Sigma-Aldrich, St. Louis, Mo.). Responder CD8^+ T cells were analyzed for reactivity against control (HLA-A2^+) T2 cells or T2 cells pulsed with individual TASA or TAA peptides (1 μM for 4 h at 37° C.) at a CD8^+ T cell-to-T2 cell ratio of 5:1 for 24 h. Harvested cell-free supernatants were consequently assessed for hIFN-γ content using a specific ELISA (BD Biosciences, San Diego, Calif.) with a lower detection limit of 4.7 pg/ml.
CD8^+ T cells from HLA-A2^+ normal donors or HLA-A2^+ melanoma patients recognize TASA-derived peptides in vitro. To assess whether the TASA-derived peptides identified in the HHD tumor model were also capable of being recognized by human CD8^+ T cells, IVS was performed using T cells isolated from the peripheral blood of HLA-A2^+ donors or HLA-A2^+ patients with melanoma. DC were pulsed with peptides derived from a given TASA for 4 h at 37° C., then washed and used as stimulator cells for autologous CD8^+ T cells. In cases where more than one peptide existed for a given protein, DC were pulsed with an equimolar (10 μM) mixture of each peptide. Two rounds of IVS using TASA for normal donors and a single-round of IVS using TASA for melanoma patients was applied. HLA-A2^+ normal donors (FIG. 4; Tables 4, 5A and 5B) and melanoma patients (FIG. 4; Tables 4, 5A and 5B) were each capable of recognizing many of the TASA-derived peptides.

CD8+ splenocytes = assay: Tc1 response to DC.IL12/peptide vaccination (splenic CD8+ T cell IFN-γ ELISA against peptide-pulsed T2 cells); assay type: in vivo, HHD mice; details: DC.IL12 pulsed with peptide(s), two s.c. vaccinations; versus DC only
From the text: FIGS. 9A-9B show a series of graphs illustrating induction of specific/protective CD8^+ T cells reactive against TASA as a consequence of DC/peptide-based vaccination. In FIG. 9A, HHD mice (five animals/cohort) were vaccinated twice (d-14, d-7) subcutaneously with PBS or with isologous DC.IL12 pulsed with PBS or synthetic peptides (Table 6) derived from the indicated TASA. In cases where more than 1 peptide was identified for a given target antigen, an equimolar pool of the indicated peptides (each 10 μM) was pulsed onto DC.IL12 and used for vaccination in the relevant cohort. One week after the second immunization, spleens were harvested and splenic CD8^+ T cells isolated using MACS-beads (Miltenyi). T cells were stimulated in vitro for 48 h using the HLA-A2^+ T2 cell line pulsed with relevant TASA vs. irrelevant HIV-nef190-198 ([…]; ref. 24) peptides. Cell-free supernatants were then recovered and IFN-γ levels by ELISA. Data are reported as mean+/−SD for triplicate ELISA determinations, and are representative of 3 independent experiments performed. *p<0.05 vs. HIV-nef control peptide responses. In FIG. 9B, HHD mice were vaccinated twice (days −14 and −7; right flank) subcutaneously with PBS or with isologous DC.IL12 pulsed with PBS or synthetic TASA peptides as indicated in FIG. 1A. In cases where more than 1 peptide is identified for a given target antigen, an equimolar pool of the indicated peptides (each 10 μM) was pulsed onto DC.IL12 and used for vaccination in the relevant cohort. One week after the booster vaccine (i.e. day zero), animals were challenged subcutaneously on their left flank with 2×10^6 MC38 colon carcinoma cells. Tumor growth was then monitored every 3-4 days through day 24. All data represent mean tumor area (in mm^2)+/−SD determined from 5 mice/cohort, and are representative of three independent experiments performed. *p<0.05 versus DC only on the indicated days.
Vaccine Experiments. For prophylactic experiments, HHD mice were immunized subcutaneously on the right flank with 100 μl PBS or PBS containing 10^6 syngenic DC.IL12 cells that had been untreated or pre-pulsed for 4 h at 37° C. with 10 μM synthetic peptide(s). Immunizations occurred on days −14 and −7, with mice subsequently receiving injections of MC38 (2×10^6) tumor cells in the left flank on d0. In all cases, treatment groups contained 5 mice per cohort. For analysis of tumor cellular composition in repeat experiments, MC38 tumors were isolated by surgical resection 10 days after tumor inoculation and prepared for fluorescence imaging, as described below. […] Mice were then untreated or treated with control, syngenic DC.IL12 or DC.IL12 (10^6 cells injected subcutaneously in the left flank on days 7 and 14) pulsed with synthetic TBVA peptides. In some assays, as indicated, in vivo antibody depletions (on days 6, 13 and 20 post-tumor inoculation to assess early involvement or on days 60 and 67 or 180 and 187 to assess late involvement) of protective CD4^+ T cells or CD8^+ T cells were performed and monitored as previously described (Zhao et al., Mol Ther., 19:805-814, 2011). In all cases, tumor size (area) was monitored every 3-4 days and is reported as mean+/−SD in mm^2.
Evaluation of Specific CD8^+ T Cell Responses in HHD Mice. MACS (Miltenyi Biotec) CD8^+ splenocytes were harvested (from 3 mice/group) 7 days after the second round of DC-based vaccination (i.e. day 21 after tumor inoculation) and analyzed for reactivity against unpulsed T2 cells, TBVA peptide-pulsed T2 cells, or day 19 (flow-sorted) B16-derived PDGFRβ^+CD31^negH-2K^b(neg) pericytes or PDGFRβ^negCD31^+H-2K^b(neg) VEC isolated as previously described (Zhao et al., Mol Ther., 19:805-814, 2011). Where indicated, 10 μg of anti-HLA-A2 mAb BB7.2 or control anti-class II mAb L243 (both from ATCC, Manassas, Va.) were added to replicate co-culture wells. After 48 h, supernatants were analyzed for mIFN-γ content by specific ELISA (BD-Biosciences; lower detection limit=31.3 pg/ml). […]

Row | Sequence | Specific CD8+ T Cell Response, HLA-A2+ Normal Donors (of 8) [1] | Specific CD8+ T Cell Response, HLA-A2+ Melanoma Patients (of 10) [1] | Tc1 Response to Peptide Vaccine (HHD) (CD8+ splenocytes)
1 | DIWDGIPHV (listed as Homo sapiens) | 0 | 4 | + (+, p < 0.05 versus DC only)
2 | FLNKCETWV (listed as Homo sapiens) | 2 | 4 | + (+, p < 0.05 versus DC only)
3 | GLLRFVTAV (listed as Homo sapiens) | 2 | 7 | + (+, p < 0.05 versus DC only)
4 | GMLGMVSGL (listed as Homo sapiens) | 2 | 7 | + (+, p < 0.05 versus DC only)
5 | ILGVLTSLV (listed as Homo sapiens) | 2 | 6 | + (+, p < 0.05 versus DC only)
6 | ILLWEIFTL (listed as Homo sapiens) | 2 | 1 | + (+, p < 0.05 versus DC only)
7 | LILPLLFYL (listed as Homo sapiens) | 0 | 4 | + (+, p < 0.05 versus DC only)
8 | LLQERGVAYI (listed as Homo sapiens) | 0 | 2 | + (+, p < 0.05 versus DC only)
9 | LLVPTCVFLV (listed as Homo sapiens) | 4 | 4 | + (+, p < 0.05 versus DC only)
10 | NMLGMLSGL (listed as Homo sapiens) | 0 | 0 | –
11 | RLLGNVLVCV (listed as Homo sapiens) | 1 | 1 | + (+, p < 0.05 versus DC only)
12 | RLLVVYPWT (listed as Homo sapiens) | 2 | 6 | + (+, p < 0.05 versus DC only)
13 | RLTPGVHEL (listed as Homo sapiens) | 1 | 4 | + (+, p < 0.05 versus DC only)
14 | TLADFDPRV (listed as Homo sapiens) | 2 | 6 | + (+, p < 0.05 versus DC only)
15 | TLFWLLLTL (listed as Homo sapiens) | 1 | 3 | + (+, p < 0.05 versus DC only)
16 | TLSNLSFPV (listed as Homo sapiens) | 0 | 4 | –
17 | VIAMFFWLL (listed as Homo sapiens) | 0 | 0 | + (+, p < 0.05 versus DC only)
18 | VLLGAVCGV (listed as Homo sapiens) | 2 | 1 | + (+, p < 0.05 versus DC only)
19 | YLQVDLRFL (listed as Homo sapiens) | 0 | 4 | –
